Source: patent US11319322B2, “Substituted aryl ether compound, preparation method thereof, pharmaceutical composition and use thereof” (Xiamen University, priority 2017, dated 2022)

What was measured:
Type in all cases: cell-based
[1] = test system: LC-2/AD cells; test: Growth inhibition of RET-positive non-small cell lung cancer cells LC-2/AD (MTS); settings: Homo sapiens, LC-2/AD non-small cell lung cancer cells, 48 h
Experimental: Growth inhibitory activity of compounds on kinase RET-positive non-small cell lung cancer cells LC-2/AD
The specific test method is given as follows:
1) Medium: DMEM (Dulbecco's modified eagle medium) or RPMI 1640 (containing 10% fetal bovine serum, 100 μg/mL ampicillin, 100 μg/mL streptomycin).
2) Reagents: MTS reaction solution (containing 2 mg/mL of MTS [3-(4,5-dimethylthiazol-2-yl)-5-(3-carboxymethoxyphenyl)-2-(4-sulfophenyl)-2H-tetrazolium, inner Salt]; 100 μg/mL PES (phenazine […])).
3) Compound test: LC-2/AD cells (2×10^4 cells/well) were incubated into a 96-well culture plate, the volume of cell culture fluid was 90 μL, and then 10 μL of the compound at each gradient concentration was added (the highest concentration was 10 μM, which was diluted stepwise by ⅓, and 8 concentration points were set in total; the system contained 0.1% DMSO (dimethyl sulfoxide)). The cell plate with uniformly mixed compound was cultured in a cell culture incubator (37° C.; 5% CO2) for 48 h, then 20 μL of MTS reaction solution was added, uniformly mixed and incubated in the cell culture incubator (37° C.; 5% CO2) for 1-4 hr; OD values at 490 nm were measured by a microplate reader (VARIOSKAN FLASH, Thermo). Three parallels were set in each group of experiments, with 0.1% (a final concentration) DMSO as a negative control, and a medium without cells or compounds as a blank control. The cell growth inhibition rate was calculated by the following formula: Cell growth inhibition rate %=1−(ODexperimental group−ODblank group)/(ODnegative group−ODblank group)×100%
4) IC50 calculation: The semi-inhibitory concentration of the compound acting on cell growth was calculated using GradPad Prism 5 software according to the measured cell growth inhibition rate.

[2] = target: T1, CCDC6-RET-BaF3 (Homo sapiens, UniProt P07949); test: Growth inhibition of CCDC6-RET-BaF3 cells stably transfected with kinase (MTS); settings: 48 h, read-out: CCDC6-RET (IC50/nM)
T1 construct: fused on or other part: Q16204 (Coiled-coil domain-containing protein 6)
Method in brief: (§1)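 BaF3 cells stably expressing CCDC6-RET or KIF5B-RET, or parental BaF3, 2×10^4 cells/well, treated 48 h at 37 °C with 8-point 1:3 dilutions from 10 μM (0.1% DMSO). MTS/PES added 1–4 h, OD490 read; inhibition versus DMSO and blank gave IC50.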

[3] = target: T2, KIF5B-RET-BaF3 (Homo sapiens, UniProt P07949); test: Growth inhibition of KIF5B-RET-BaF3 cells stably transfected with kinase (MTS); settings: 48 h, read-out: KIF5B-RET (IC50/nM)
T2 construct: fused on or other part: P33176 (Kinesin-1 heavy chain)
Method in brief: as §1

[4] = test system: wild-type BaF3; test: Growth inhibition of wild-type BaF3 cells, broad-spectrum toxicity (MTS); settings: Mus musculus, 48 h, read-out: WT Ba/F3 (IC50/nM)
Method in brief: as §1

T2 sequence (P07949 whole entry, change not shown, the tested form may be a part): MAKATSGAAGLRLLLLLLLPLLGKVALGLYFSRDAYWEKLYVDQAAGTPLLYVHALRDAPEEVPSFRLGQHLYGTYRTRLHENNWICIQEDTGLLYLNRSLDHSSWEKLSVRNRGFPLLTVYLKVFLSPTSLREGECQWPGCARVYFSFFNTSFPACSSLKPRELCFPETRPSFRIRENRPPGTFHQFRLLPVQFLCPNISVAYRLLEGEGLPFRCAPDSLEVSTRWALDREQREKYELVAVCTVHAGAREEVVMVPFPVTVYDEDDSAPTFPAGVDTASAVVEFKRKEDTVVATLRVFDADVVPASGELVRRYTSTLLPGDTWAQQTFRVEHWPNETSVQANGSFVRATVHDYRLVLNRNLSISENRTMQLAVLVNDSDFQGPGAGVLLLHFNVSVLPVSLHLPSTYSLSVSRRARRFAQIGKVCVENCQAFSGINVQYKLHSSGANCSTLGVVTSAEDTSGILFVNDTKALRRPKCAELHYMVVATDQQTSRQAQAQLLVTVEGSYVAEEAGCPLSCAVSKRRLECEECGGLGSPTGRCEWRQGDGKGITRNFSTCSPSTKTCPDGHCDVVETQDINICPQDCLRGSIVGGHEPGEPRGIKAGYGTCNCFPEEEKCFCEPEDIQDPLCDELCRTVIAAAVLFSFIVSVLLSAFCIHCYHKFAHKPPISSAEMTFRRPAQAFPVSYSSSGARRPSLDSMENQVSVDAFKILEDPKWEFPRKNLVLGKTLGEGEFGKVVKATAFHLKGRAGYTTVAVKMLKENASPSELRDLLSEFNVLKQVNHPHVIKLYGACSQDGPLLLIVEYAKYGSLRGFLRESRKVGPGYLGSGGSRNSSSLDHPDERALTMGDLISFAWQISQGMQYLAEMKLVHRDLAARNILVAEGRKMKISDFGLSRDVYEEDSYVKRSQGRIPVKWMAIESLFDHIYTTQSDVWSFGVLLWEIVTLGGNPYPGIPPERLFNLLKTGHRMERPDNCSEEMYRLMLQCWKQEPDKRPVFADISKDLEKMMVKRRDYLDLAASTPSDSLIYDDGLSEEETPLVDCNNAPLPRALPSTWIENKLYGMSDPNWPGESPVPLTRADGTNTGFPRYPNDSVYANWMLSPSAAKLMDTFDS
T1 sequence (P07949 whole entry, change not shown, the tested form may be a part): as above

Compound	IC50 [1] [nM]	GI50 [2] [nM]	GI50 [3] [nM]	IC50 [4] [nM]
Cc1ccc(Oc2nc(-c3ccncc3)nc3nn(C)cc23)cc1C(=O)Nc1ccc(CN2CCN(C)CC2)c(C(F)(F)F)c1 [IV-n-2]	1400	172	173	
Cc1ccc(C(=O)Nc2ccc(CN3CCN(C)CC3)c(C(F)(F)F)c2)cc1Oc1nc(-c2cccnc2)nc2c1cnn2C [II-m-1]	301	35.2	8.28	
COc1cc2nccc(Oc3ccc(NC(=O)C4(C(=O)Nc5ccc(F)cc5)CC4)cc3)c2cc1OC [Cabozantinib]	4150	226	302	
Cc1ccc(Oc2nc(-c3ccncc3)nc3c2ncn3C)cc1C(=O)Nc1ccc(CN2CCN(C)CC2)c(C(F)(F)F)c1 [I-n-3]	818	8.38	40.5	
Cc1ccc(C(=O)Nc2cc(CN3CCN(C)CC3)cc(C(F)(F)F)c2)cc1Oc1nc(-c2ccncc2)nc2ccn(C)c12 [III-q-4]		901	1270	1330
Cc1ccc(Oc2nc(-c3ccncc3)nc3[nH]ncc23)cc1NC(=O)c1ccc(CN2CCN(C)CC2)c(C(F)(F)F)c1 [II-j-6]		7.96	44.2	4230
Cc1ccc(-c2nc(Oc3ccc(Cl)c(NC(=O)c4ccc(CN5CCN(C)CC5)c(C(F)(F)F)c4)c3)c3c(ccn3C)n2)cc1 [III-k-16]		2090	3190	3630
Cc1ccc(Oc2nc(-c3ccoc3)nc3c2ncn3C)cc1NC(=O)c1ccc(CN2CCN(C)CC2)c(C(F)(F)F)c1 [I-j-6]		221	1180	4220
CN1CCN(Cc2ccc(C(=O)Nc3cc(Oc4nc(-c5ccccc5)nc5ccn(C)c45)ccc3Cl)cc2C(F)(F)F)CC1 [III-k-18]		4120	3990	3890
Cc1ccc(C(=O)Nc2ccc(CN3CCN(C)CC3)c(C(F)(F)F)c2)cc1Oc1cc(-c2ccncc2)nc2c1ccn2C [V-m-4]		1240	811	1420
Cc1ccc(Oc2nc(-c3cccnc3)nc3ccsc23)cc1NC(=O)c1ccc(CN2CCN(C)CC2)c(C(F)(F)F)c1 [VI-j-1]		2700	3960	3380
Cc1ccc(Oc2nc(-c3cccnc3)nc3ccsc23)cc1C(=O)Nc1ccc(CN2CCN(C)CC2)c(C(F)(F)F)c1 [VI-n-1]		3240	2840	4190
